# Source: patent publication US7855076B2, “Use of discoidin domain receptor 1 (DDR1) and agents that affect the DDR1/collagen pathway” (The United States of America as represented by the …, priority 2002, dated 2010)
# Tests used:
# DDR1 protein = DDR1 protein expression in leukocytes by immunoprecipitation and Western blotting; type: cell-based, human; details: PBMC; TNF-α 5 ng/ml or GM-CSF 10 ng/ml, 36 hours
# Description: For Western blot analysis, cell lysates were prepared from freshly isolated PBMC, PBMC incubated overnight in RPMI 1640 containing 10% FCS, and MCF-7 cells. Cells were lysed on ice for 20 minutes in a buffer containing 50 mM Hepes, 150 mM NaCl, 1% Triton X-100, 10% glycerol, 10 mM NaF, 1 mM ethylenediamine tetraacetic acid, […], 1 mg/ml leupeptin, 1 mM phenylmethylsulfonyl fluoride, 1 mg/ml aprotinin, and 1 mg/ml pepstatin A. The lysates were spun, and the supernatants were collected. The samples were incubated with approximately 20 μl packed volume of PGS for 1 hour at 4° C. After centrifugation, supernatants were collected, mixed with 1 μg/ml normal rabbit IgG or polyclonal anti-human DDR1 IgG, and incubated for 1 hour at 4° C. PGS (20 μl) was then added and incubated for another 1 hour. IgG-coupled PGS was washed with the buffer containing 50 mM Hepes, 150 mM NaCl, 0.1% Triton X-100, 10% glycerol buffer three times, and 20 μl double-strength sample buffer (20% glycerol, 6% sodium dodecylsulfate (SDS), 10% 2-mercaptoethanol) was added. The samples were boiled for 10, minutes. Eluted proteins were analyzed on 7.5% polyacrylamide gels by SDS polyacrylamide gel electrophoresis (SDS-PAGE) and transferred electrophoretically to nitrocellulose membranes (Amersham, Arlington Heights, Ill.) at 200 mA for 2 hours by a semi-dry system. The membranes were incubated with polyclonal anti-human DDR1 or anti-phosphotyrosine IgG, followed by sheep anti-mouse IgG coupled with horseradish peroxidase (Amersham). Peroxidase activity was visualized by the Enhanced Chemiluminescence Detection System (Amersham).
# There was no detectable DDR1 protein in freshly isolated PBMC. DDR1 protein was detected clearly after overnight incubation in RPMI 1640 containing 10% FCS. In order to study the kinetics of DDR1 protein expression, PBMC were incubated with or withour addition of TNF-α (5 ng/ml), or GM-CSF (10 ng/ml) for 36 hours and cell lysates were prepared. Cell lysates were subjected to immunoprecipitation with anti-DDR1 IgG or control IgG. […]
# DDR1a = molecular target: T1, DDR1a (Homo sapiens, UniProt Q08345); experiment: Autophosphorylation of DDR1a overexpressed in THP-1 cells; type: cell-based
# T1 construct: The full-length human DDR1a or DDR1b cDNA was ligated into the EcoRI/BamHI site of the retroviral vector pLXSN; expressed in transfected cells; host or cells: THP-1 human monocytic leukemia cells, retroviral vector pLXSN, G418-selected clones
# Description: Using the retrovirus-infected cell lines, the effect of collagen type I on the phosphorylation of DDR1 proteins was tested. Two million cells in 3 ml complete medium were added onto collagen type I-coated plastic plates and incubated at 37° C. for various times. Cell lysates were prepared and immunoprecipitation was performed with the anti-DDR1 antibody. One-fourth of the immunoprecipitated samples was subjected to SDS-PAGE and Western blotting. The membranes were blotted with anti-pTyr and anti-DDR1 antibody. Low levels of constitutive autophosphorylation of both receptors were detected. The levels of autophosphorylation increased slightly at 15 minutes and peaked at 90 minutes after activation of the cells on collagen type I-coated plastic plates. The peak level was maintained for up to 240 minutes for DDR1a, which is consistent with the previously reported delayed kinetics of […] autophosphorylation in other cell types (Vogel FASEB J, (Suppl.), S77-S82, 1999). In contrast, autophosphorylation of DDR1b decreased after 90 minutes of collagen-activation.
# Parental, mock, DDR1a- or DDR1b-overexpressing THP-1 cells were plated at 5×10^6/ml on uncoated tissue culture plates and stimulated with PMA (10 nM) for 24 hours, and then starved in RMPI 1640 without FCS for 10 hours. Subsequently cells were washed three times with PBS, and then incubated in the presence of 50 μg/ml collagen type I for various times.
# Ten million cells were lysed on ice for 20 minutes in a buffer containing 50 mM NaCl, 20 mM Tris-HCl, 50 mM sodium fluoride, 30 mM Na4P2O7, 5 mM EGTA, 3 mM sodium orthovanadate, 1% Triton X-100, 1 mg/ml leupeptin, 1 mM PMSF, 1 mg/ml aprotinin, 1 mg/ml pepstatinA and 100 μM sodium orthovanadate treated with H2O2. […]
# Eluted proteins were analyzed on 8% polyacrylamide gels by SDS-PAGE and transferred electrophoretically to nitrocellulose membranes at 150 mA for 1 hour by a semi-dry system. […] To detect phosphorylated or nonphosphorylated p38 MAP kinase or ATF-2, 20 μl of cell lysates were directly mixed with 20 μl of sample buffer and then analyzed.
# [1] = PMA-treated cells, 50 μg/ml collagen type I
# T1 sequence (Q08345 19-876 isoform Q08345-2 limits assumed): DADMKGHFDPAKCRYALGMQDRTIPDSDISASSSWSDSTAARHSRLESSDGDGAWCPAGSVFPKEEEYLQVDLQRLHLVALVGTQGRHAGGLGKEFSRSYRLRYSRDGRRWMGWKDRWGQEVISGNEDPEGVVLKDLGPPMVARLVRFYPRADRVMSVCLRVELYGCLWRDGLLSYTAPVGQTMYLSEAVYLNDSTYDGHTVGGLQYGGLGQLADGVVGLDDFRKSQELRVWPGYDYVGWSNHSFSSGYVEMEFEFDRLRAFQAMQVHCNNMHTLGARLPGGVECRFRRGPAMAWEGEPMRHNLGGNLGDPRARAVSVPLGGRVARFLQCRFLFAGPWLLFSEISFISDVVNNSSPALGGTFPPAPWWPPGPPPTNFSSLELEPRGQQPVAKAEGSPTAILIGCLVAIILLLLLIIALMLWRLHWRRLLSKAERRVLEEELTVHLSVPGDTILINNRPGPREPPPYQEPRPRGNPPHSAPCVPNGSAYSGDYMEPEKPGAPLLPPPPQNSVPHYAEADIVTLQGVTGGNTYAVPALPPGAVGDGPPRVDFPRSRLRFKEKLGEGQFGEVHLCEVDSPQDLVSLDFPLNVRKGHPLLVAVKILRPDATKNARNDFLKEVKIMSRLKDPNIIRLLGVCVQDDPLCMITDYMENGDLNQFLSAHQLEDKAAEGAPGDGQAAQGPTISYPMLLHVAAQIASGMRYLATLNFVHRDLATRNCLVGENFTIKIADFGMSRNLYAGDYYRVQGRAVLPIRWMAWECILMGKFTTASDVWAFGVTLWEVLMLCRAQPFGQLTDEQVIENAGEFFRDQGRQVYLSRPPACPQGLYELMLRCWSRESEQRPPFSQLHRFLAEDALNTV
Substance,level of DDR1 protein expression (DDR1 protein),time autophosphorylation first detected (DDR1a; [1]),time of peak autophosphorylation (DDR1a; [1]),"time of peak autophosphorylation (DDR1a; collagen type I-coated plates, cells not PMA-treated)"
TNF-α,increased,,,
collagen,,90 min,4 h,1.5 h
